In ChEMBL document CHEMBL1208779, “Integrated ligand and structure based studies of flavonoids as fatty acid biosynthesis inhibitors of Plasmodium falciparum” (Bioorg Med Chem Lett, 2010):
The source made the active and inactive calls. The rule behind the calls is not given here.

Biological target: T1, Enoyl-acyl-carrier protein reductase (Plasmodium falciparum) (UniProt Q965D5)
T1 sequence (whole entry): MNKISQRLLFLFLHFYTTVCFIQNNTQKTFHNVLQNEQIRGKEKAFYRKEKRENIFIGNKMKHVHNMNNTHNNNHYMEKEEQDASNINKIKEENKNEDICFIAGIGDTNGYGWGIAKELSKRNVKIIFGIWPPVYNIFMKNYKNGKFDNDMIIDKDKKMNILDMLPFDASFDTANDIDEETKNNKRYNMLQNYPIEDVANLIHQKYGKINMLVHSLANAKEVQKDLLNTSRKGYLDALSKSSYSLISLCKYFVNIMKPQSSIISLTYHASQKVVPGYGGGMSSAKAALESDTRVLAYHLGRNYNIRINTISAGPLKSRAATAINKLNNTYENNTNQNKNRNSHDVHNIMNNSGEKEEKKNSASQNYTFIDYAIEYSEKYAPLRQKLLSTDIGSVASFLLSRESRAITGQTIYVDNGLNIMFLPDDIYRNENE
Assay: Inhibition of Plasmodium falciparum FabI at 100 uM

inhibition | Compound
inactive | COc1ccc(-c2cc(=O)c3c(O)c(O)c(OC)cc3o2)cc1
inactive | O=c1cc(-c2ccccc2)oc2ccc(O)cc12
inactive | COc1cc2c(c(O)c1OC)C(=O)C[C@@H](c1ccc(O)cc1)O2
